For one data set, the system named is GFAP, Connexin43, Iba-1. The data set is described as follows: Immunohistochemical labelling of GFAP, Iba-1 and Connexin43 in hyperglycemic rat retina. It is filed as in vivo, SD rats (spontaneously hyperglycemic strain). The conditions noted are these: dosed daily for 14 days, 8 weeks of age. The method, then: Ten rats per group were the selected (10 normal SD and 10 hyperglycemic) grown to 5 weeks of age and assessed using OCT and ERG. The hyperglycemic rat group was then split into two subgroups of five, with one subgroup fed tonabersat once daily for 14 days from weeks 5 to 7 at a low dose level of 0.28 mg/kg in 0.5 g peanut butter, with the other subgroup fed 0.5 g peanut butter only. All animals were assessed again using ERG and OCT at 8 weeks of age before euthanizing animals and removing the eyes for immunohistochemical analysis. Data groups were randomized prior to the statistical comparison. In summary, normal SD and hyperglycemic rats were analyzed with OCT and ERG at 5 weeks of age; the hyperglycemic rats were then split into two groups and fed the vehicle or tonabersat for 14 days during weeks 6 and 7 of age. At week 8, animals were again assessed with ERG and OCT and tissues collected for immunohistochemical analysis. Four tonabersat-treated rats were, however, left until 3 months of age before final ERG and OCT and tissue collection.
Tissue Collection and Processing—At the end of the final OCT recording rats was deeply anesthetized using a combination of ketamine (75 mg/kg, Parnell Technologies, New Zealand) and domitor (0.5 mg/kg, Pfizer, New Zealand). Animals were perfused transcardially with saline for 2-3 min followed by 30 min perfusion with 4% paraformaldehyde in a 0.1 M phosphate buffer, pH 7.4 (PB). Eyes were dissected from the orbit and the eyecups further immersion fixed in 4% paraformaldehyde, 30 min before washing in PB. Tissues were then cryo-protected by taking them though 10% and 20% sucrose/PB solutions at room temperature for 30 min each, before soaking in 30% sucrose/PB at 4° C. overnight. The tissue was then embedded in optimum cutting temperature compound (Sakura Finetek, Torrance, USA) for cryosectioning (16 μm section thickness) in the vertical plane using a Leica CM3050 S cryostat (Leica, Germany). Sections were collected on Superfrost Plus slides (Labserv, New Zealand) for immunohistochemical labelling. For the DR animals we collected spleen, pancreas, liver, heart and kidneys from randomly selected vehicle-injected animals (see supplementary information).
Immunohistochemical Labelling of Tissue Sections—Frozen tissue sections were air-dried at room temperature for 10-15 min and washed with 0.1 M PB. Sections were encircled with a PAP pen (Invitrogen, New Zealand) to form incubation wells and blocked with 6% normal goat serum or donkey serum (Invitrogen, USA), 1% bovine serum albumin (BSA) and 0.5% Triton X-100 in 0.1 M PB for 1 hour at room temperature. […]

The nature of data set [1]: Estimated circulating concentration after oral tonabersat in peanut butter. It is filed as in vivo, Sprague Dawley (SD) rats. The protocol:
Tonabersat treatment of light damaged rats—LD rats were randomly assigned to low, middle or high dose of tonabersat (n=7 per group). The mixture of tonabersat in peanut butter was prepared fresh for each experiment. Three oral tonabersat doses were tested (n=7 per group) with follow up to 2 weeks post-injury, and the highest dose group then split with three animals taken for histological analysis, and four animals followed to 3 months post-injury. There was a ten-animal vehicle only control group. The group of rats that were kept for 3 months were maintained in separate cages for drug or vehicle-treated animals, but were kept under the same light conditions. Tonabersat was fed to animals in peanut butter at 0.26 mg/kg (on average 0.08 mg delivered, estimated circulating concentration 10 μM), 0.8 mg/kg (average of 0.24 mg delivered; 30 μM circulating) or 2.4 mg/kg (on average 0.72 mg delivered; 90 μM circulating) following consideration of previous unsuccessful human trial dosing levels. Silberstein S D. Tonabersat, a novel gap-junction modulator for the prevention of migraine. Cephalalgia. 2009; 29 Suppl 2:28-35; Dahlof C G, Hauge A W, Olesen J. Efficacy and safety of tonabersat, a gap-junction modulator, in the acute treatment of migraine: a double-blind, parallel-group, randomized study. Cephalalgia. 2009; 29 Suppl 2:7-16; Goadsby P J, Ferrari M D, Csanyi A, Olesen J, Mills J G, Tonabersat TONSG. Randomized, double-blind, placebo-controlled, proof-of-concept study of the cortical spreading depression inhibiting agent tonabersat in migraine prophylaxis. Cephalalgia. 2009; 29:742-50. […] The treatment groups were known to the investigator at the time of treatment, but groups were then randomized prior to statistical comparison which meant that analysis was conducted without the knowledge of which were treated or control animals. […] Two weeks later animals were again assessed with ERG and OCT and tissue collection proceeded immediately after, except for four rats in the high dose group that were under experimentation for 3 more months.

Setting [2] is: significantly less than untreated, p<0.001.

Take `CC(=O)c1ccc2c(c1)[C@H](NC(=O)c1ccc(F)c(Cl)c1)[C@H](O)C(C)(C)O2` [tonabersat, N-[(3S,4S)-6-acetyl-3-hydroxy-2,2-dimethyl-3,4-dihydrochromen-4-yl]-3-chloro-4-fluorobenzamide]: in the data set with GFAP, Connexin43, Iba-1, the “inflammation (labeling for GFAP, Iba-1, Connexin43)” value was “reduced inflammation”. Further, in the data set on GFAP, Connexin43, Iba-1 (setting [2]), the “Connexin43 labelling, quantification” value is “recovering to normal”; the “GFAP labelling, quantification” value was “recovering to normal”; the “Iba-1 labelling, quantification” value was “recovering to normal”. The estimated circulating concentration in data set [1] (0.26 mg/kg oral in peanut butter (on average 0.08 mg delivered)) was 10 µM. Further, the estimated circulating concentration in data set [1] (0.8 mg/kg oral in peanut butter (average 0.24 mg delivered)) is 30 µM. Also, in data set [1] (2.4 mg/kg oral in peanut butter (on average 0.72 mg delivered)), the estimated circulating concentration is 90 µM.

The record behind these values is patent publication US20220401408A1, “COMPOSITIONS AND METHODS FOR RESCUING RETINAL AND CHOROIDAL STRUCTURE AND FUNCTION” (AUCKLAND UNISERVICES LIMITED, priority 2019, published 2022).
